The values below come from patent US20040097583A1, “Use of inhibitors of the sodium/hydrogen exchanger for the treatment of thrombotic and inflammatory disorders” (priority 2002, published 2004).

The structures appear in SMILES notation. “And” between values parts separate entries of the source, which are not always exact repeats. Identical values can stand only once. “Also recorded” adds a separate entry of the source.

For assay [1], the system named is human umbilical vein endothelial cells (HUVEC). The assay can be described thus: Measurement of the intracellular pH (pHi) during reperfusion simulation after acidosis, BCECF fluorescence. It counts as cell-based. How it is done:
(§1) All the examples were carried out with human umbilical vein endothelial cells (HUVEC). These comprise primary cell cultures isolated from the umbilical vein.
(§2) For the following examples, the cells were cultivated either on gelatinized glass plates (measurement of the intracellular proton concentration) or on cell culture plates (12-well culture plates, Falcon, N.J., USA; measurement of vWF release) after the first passage.
To measure the intracellular proton concentration (pHi), the HUVECs were loaded with the pH-sensitive fluorescent dye, BCECF-AM (2′,7′-bis(carboxyethyl)-5(6)-carboxyfluorescein). A Deltascan spectrofluorometer (PTI, Hamburg) was employed for the subsequent fluorescence measurement. This measuring system consists essentially of a UV light source, a monochromator, a photon detector and the Felix and Oscar software packages (PTI, Hamburg) for controlling the system via a computer. After alternate excitation with the wavelengths 439.5 nm (pH-independent) and 490 nm (pH-sensitive), the ratio of the measured emissions of the BCECF (ratio) was reported and the pH was found after a calibration. The measuring cell is designed so that the parameters of temperature and carbon dioxide partial pressure in the system are controlled during continuous perfusion. For the reperfusion simulation, the experimental conditions were set at 37° C. and a carbon dioxide partial pressure of 5% or 10% by gassing the system and perfusate.
In the experiment, there was initially preincubation with sodium bicarbonate buffer pHex 6.4 for 60 minutes in order to simulate […] metabolic acidosis. The initiation perfusion was then changed to sodium bicarbonate buffer of pH 7.4 with 10 μM histamine as reperfusion simulation. These control experiments were compared with an experiment in which the NHE inhibitor cariporide was added in a concentration of 10 μM to the reperfusion buffer.

Assay [2] has the same test system. Put plainly: Measurement of vWF release after reperfusion (ELISA of cell supernatant). It counts as cell-based. How it is done: as §1, §2
The measurements were carried out in a Heraeus Heracell incubator. This made it possible to […] the umbilical vein endothelial cells under controlled physiological conditions (temperature 37° C., relative humidity 100%, pCO2 constant at 5%), and to ensure rapid change of different cell culture media.
Said cells were initially incubated with acidotic medium (pH 6.4 composed of the ingredients: medium M199 w/Earle's & amino acids, w/L-glutamine, w/o NaHCO3, w/o Hepes+0.084 g NaHCO3/1) or pH standard medium (pH 7.4 composed of the ingredients: medium M199 w/Earle's & amino acids, w/L-glutamine, w/o NaHCO3, w/o Hepes+2.200 g NaHCO3/1), for one, three or 48 hours. Before starting the reperfusion, samples of supernatant were taken to determine the vWF concentration under acidotic conditions (vWFacidosis) and control conditions (vWFco). To simulate reperfusion, the medium was changed to one with a pH of 7.4 (ingredients: medium M199 w/Earle's & amino acids, w/L-glutamine, w/o NaHCO3, w/o Hepes+2.200 g NaHCO3/1+10 μM histamine) to which the NHE inhibitor cariporide was added in a concentration of 10 μM. Change to the same medium without corresponding addition of inhibitor served as control.
The samples taken from the supernatant were used to determine the vWF concentration. This was done by an ELISA method (enzyme-linked immuno sorbent assay) using specific antibodies. The vWF content of standard human plasma (Behring, Marburg) is calculated using an international standard (2nd International Standard 87/718, National Institute for Biological Standards and Control, London).
A general note: An ELISA detects its analyte on a solid surface through an enzyme-linked reagent.

Consider `CC(C)c1ccc(C(=O)N=C(N)N)cc1S(C)(=O)=O` [cariporide], for which the “Rate of pH increase, Mean ± SEM” value in assay [1] (10 μM cariporide in reperfusion buffer pH 7.4 with 10 μM histamine, after 60 minutes of acidosis (pHex 6.4), first 30 seconds after reperfusion) is recorded as 0.27 ± 0.02 Δ pH / min. Besides, in assay [1] (10 μM cariporide in reperfusion buffer pH 7.4 with 10 μM histamine, after 60 minutes of acidosis (pHex 6.4), first 30 seconds after reperfusion, listed as HOE), the “Rate of pH increase, individual experiments” value is 0.30 Δ pH / min and 0.24 Δ pH / min (2×) and 0.23 Δ pH / min and 0.34 Δ pH / min. In addition, in assay [1] (extracellular pH changed from 6.4 to 7.4, 10 μM cariporide), the “Reduction in the rate of increase in intracellular pH compared with the control (factor)” value is 3.6. The “Effect on vWF secretion of healthy, non-acidotic control cells (in words)” value in assay [2] (control cells incubated with cariporide (10 μM)) is listed as “no increase or decrease in vWF secretion; also recorded: showed no effect”. Also, in assay [2] (non-acidotic control cells, 10 μM cariporide, 10-minute reperfusion time with stimulation), the “vWF secretion relative to control cells (vWFco = 100%), control cells incubated with cariporide (vWFco+HOE)” value is 106 ± 3.0%. The “vWF concentration during reperfusion of preacidotic cells in the presence of cariporide (vWFHOE), relative to control (vWFco = 100%)” value in assay [2] (preacidotic cells (pH 6.4), 10 μM cariporide, 10-minute reperfusion time with stimulation, without cariporide 193 ± 8.0%) came out at 139 ± 16%. In assay [2] (preacidotic cells, 10 μM cariporide), the “Reduction of the increased vWF secretion during reperfusion” value is given as about 60%.
